In the assay the test system is Mycobacterium tuberculosis variant bovis. The experiment in a line: Antituberculosis activity against Mycobacterium bovis after 14 days by serial microdilution method. As to conditions: 336 h. It is filed as functional. For orientation: Broth dilution looks for growth in wells or tubes with falling amounts of substance.

Values after ≈ are worked out from the molar mass of the structure shown. Bounds are passed on as bounds.

Turning to `CO[C@H]1/C=C/O[C@@]2(C)Oc3c(C)c(O)c4c(O)c(c(CNCCCn5ccnc5)c(O)c4c3C2=O)NC(=O)/C(C)=C\C=C\[C@H](C)[C@H](O)[C@@H](C)[C@@H](O)[C@@H](C)[C@H](OC(C)=O)[C@@H]1C`, the MIC99 worked out at 1 µg/mL (≈ 1.2 µM). `CO[C@H]1/C=C\O[C@@]2(C)Oc3c(C)c(O)c4c(O)c(c(CNC5CCN(Cc6ccccc6)CC5)c(O)c4c3C2=O)NC(=O)/C(C)=C\C=C/[C@H](C)[C@H](O)[C@@H](C)[C@@H](O)[C@@H](C)[C@H](OC(C)=O)[C@@H]1C` had an MIC99 of 0.125 µg/mL (≈ 0.139 µM). Then `CCCc1cn(CCN2Cc3c4c(O)c5c(O)c(C)c6c(c5c3O)C(=O)[C@@](C)(O/C=C/[C@H](OC)[C@@H](C)[C@@H](OC(C)=O)[C@H](C)[C@H](O)[C@H](C)[C@@H](O)[C@@H](C)/C=C/C=C(/C)C2=N4)O6)nn1`, with 0.5 µg/mL (≈ 0.591 µM); and `CO[C@H]1/C=C/O[C@@]2(C)Oc3c(C)c(O)c4c(O)c(c(/C=N/N5CCN(C)CC5)c(O)c4c3C2=O)NC(=O)/C(C)=C\C=C\[C@H](C)[C@H](O)[C@@H](C)[C@@H](O)[C@@H](C)[C@H](OC(C)=O)[C@@H]1C` [RIFAMPIN], with 0.25 µg/mL (≈ 0.304 µM).

In turn, `CO[C@H]1/C=C/O[C@@]2(C)Oc3c(C)c(O)c4c(O)c(c(CNCCCN5CCN(CCCNCc6c7c(O)c8c(O)c(C)c9c(c8c6O)C(=O)[C@@](C)(O/C=C/[C@H](OC)[C@@H](C)[C@@H](OC(C)=O)[C@H](C)[C@H](O)[C@H](C)[C@@H](O)[C@@H](C)/C=C/C=C(/C)C(=O)N7)O9)CC5)c(O)c4c3C2=O)NC(=O)/C(C)=C\C=C\[C@H](C)[C@H](O)[C@@H](C)[C@@H](O)[C@@H](C)[C@H](OC(C)=O)[C@@H]1C` gave an MIC99 greater than 1 µg/mL. Then `CO[C@H]1/C=C/O[C@@]2(C)Oc3c(C)c(O)c4c(O)c(c(CNCc5cn(CN6C(=O)c7ccccc7C6=O)nn5)c(O)c4c3C2=O)NC(=O)/C(C)=C\C=C\[C@H](C)[C@H](O)[C@@H](C)[C@@H](O)[C@@H](C)[C@H](OC(C)=O)[C@@H]1C`, with 0.25 µg/mL (≈ 0.259 µM); and `CO[C@H]1/C=C/O[C@@]2(C)Oc3c(C)c(O)c4c(O)c(c(CNCCN5CCCC5)c(O)c4c3C2=O)NC(=O)/C(C)=C\C=C\[C@H](C)[C@H](O)[C@@H](C)[C@@H](O)[C@@H](C)[C@H](OC(C)=O)[C@@H]1C`, with 1 µg/mL (≈ 1.21 µM).

In turn, `CO[C@H]1/C=C/O[C@@]2(C)Oc3c(C)c(O)c4c(O)c(c(CNCCCN5CCCC5)c(O)c4c3C2=O)NC(=O)/C(C)=C\C=C\[C@H](C)[C@H](O)[C@@H](C)[C@@H](O)[C@@H](C)[C@H](OC(C)=O)[C@@H]1C` showed an MIC99 of 1 µg/mL (≈ 1.19 µM). Then `CO[C@H]1/C=C/O[C@@]2(C)Oc3c(C)c(O)c4c(O)c5c(c(O)c4c3C2=O)CN(Cc2cn(CN3C(=O)c4ccccc4C3=O)nn2)C(=N5)/C(C)=C\C=C\[C@H](C)[C@H](O)[C@@H](C)[C@@H](O)[C@@H](C)[C@H](OC(C)=O)[C@@H]1C`, with 0.5 µg/mL (≈ 0.527 µM); and `CCCc1cn(CCNCc2c3c(O)c4c(O)c(C)c5c(c4c2O)C(=O)[C@@](C)(O/C=C/[C@H](OC)[C@@H](C)[C@@H](OC(C)=O)[C@H](C)[C@H](O)[C@H](C)[C@@H](O)[C@@H](C)/C=C/C=C(/C)C(=O)N3)O5)nn1`, with 1 µg/mL (≈ 1.16 µM). Under `CCCCCc1cn(CCCN2Cc3c4c(O)c5c(O)c(C)c6c(c5c3O)C(=O)[C@@](C)(O/C=C/[C@H](OC)[C@@H](C)[C@@H](OC(C)=O)[C@H](C)[C@H](O)[C@H](C)[C@@H](O)[C@@H](C)/C=C/C=C(/C)C2=N4)O6)nn1` stands 0.5 µg/mL (≈ 0.563 µM); under `CO[C@H]1/C=C/O[C@@]2(C)Oc3c(C)c(O)c4c(O)c(c(C=O)c(O)c4c3C2=O)NC(=O)/C(C)=C\C=C\[C@H](C)[C@H](O)[C@@H](C)[C@@H](O)[C@@H](C)[C@H](OC(C)=O)[C@@H]1C`, greater than 1 µg/mL. Then `CO[C@H]1/C=C/O[C@@]2(C)Oc3c(C)c(O)c4c(O)c(c(CNCCN(C)C)c(O)c4c3C2=O)NC(=O)/C(C)=C\C=C\[C@H](C)[C@H](O)[C@@H](C)[C@@H](O)[C@@H](C)[C@H](OC(C)=O)[C@@H]1C`, with greater than 1 µg/mL; and `CCCCCc1cn(CCCNCc2c3c(O)c4c(O)c(C)c5c(c4c2O)C(=O)[C@@](C)(O/C=C/[C@H](OC)[C@@H](C)[C@@H](OC(C)=O)[C@H](C)[C@H](O)[C@H](C)[C@@H](O)[C@@H](C)/C=C/C=C(/C)C(=O)N3)O5)nn1`, with 0.5 µg/mL (≈ 0.552 µM).

As to `CO[C@H]1/C=C/O[C@@]2(C)Oc3c(C)c(O)c4c(O)c(c(CNC5CCN(Cc6ccccc6)CC5)c(O)c4c3C2=O)NC(=O)/C(C)=C\C=C\[C@H](C)[C@H](O)[C@@H](C)[C@@H](O)[C@@H](C)[C@H](OC(C)=O)[C@@H]1C`, the MIC99 worked out at 0.125 µg/mL (≈ 0.139 µM).

A word on the MIC99: it is an inhibitory concentration at the 99% level, which refers to growth in some studies and to a panel of isolates in others. Read a high MIC99 as weaker potency.
